Test results taken from patent publication US12649726B2, “Substituted tetrahydroisoquinoline derivative as a D1 positive allosteric modulator” (UCB Biopharma SRL, priority 2020, dated 2026).
Values joined by “and” are separate entries in the source; they are usually repeats but may differ in a detail not shown here. Equal values may be shown once.

Legend:
Assay type in all cases: cell-based
[1] = biological target: T1, dopamine D1 receptor (Homo sapiens, UniProt P21728); assay: cAMP HTRF potentiation assay (presence of EC20 dopamine)
T1 construct: host or cells: LMtk (Ltk−) mouse fibroblast cells
Excerpt: (§1) Assays have been designed to measure the effects of compounds in accordance with the present invention in the absence of dopamine (“activation assay”) and in the presence of dopamine (“potentiation assay”).
The potentiation assay measures the ability of compounds to increase the levels of cAMP produced by a low-threshold concentration of dopamine. The concentration of dopamine used ([EC20]) is designed to produce 20% stimulation compared to the maximal response (100%) seen with increasing the concentration of dopamine. To measure this potentiation increasing concentrations of the compound with the [EC20] of dopamine are incubated and the potentiation is measured as increases in cAMP production and concentration of compound which produces 50% of the potentiation of the cAMP levels is measured.
(§2) Cells were cultured at 37° C. in a humidified atmosphere of 5% CO2. […]
(§3) The measurement of changes in intracellular cyclic adenosinemonophopshpate (cAMP) was determined using the HTRF cAMP dynamic assay kit from CisBio (Codolet, France). Using homogenous time-resolved fluorescence technology, the assay is based on competition between native cAMP produced by cells and cAMP labelled with the dye d2. The tracer binding is determined by an anti-cAMP antibody labeled with cryptate. […]

[2] = biological target: T2, human GABAA receptor α1,β2 and γ2 subunits (Homo sapiens, UniProt P14867+P18507+P47870); assay: Automated patch clamp GABAA receptor inhibition assay (IonFlux HT); details: 10 μM compound, 15 μM GABA, CHO-K1 cells, holding potential −60 mV; read-out: percentage of inhibition of the GABAA receptor
T2 construct: expressed in transfected cells; host or cells: CHO-K1 cells
Description: CHO-K1 cells stably expressing human GABAA receptor α1,β2 and γ2 subunits were used. The cells were harvested using trypsin and maintained in serum-free medium at room temperature. The cells were washed and re-suspended in extracellular solution before testing.
Experiments on human GABAA (α1β2γ2) channels were conducted using an automated patch clamp assay (IonFlux™ HT). Compounds were tested at 3 concentrations (0.1, 1, and 10 μM) in 3 to 4 cells. The external solution for recording GABAA currents was composed of sodium chloride 137 mM, potassium chloride 4 mM, calcium chloride 1.8 mM, magnesium chloride 1 mM, HEPES 10 mM, and glucose 10 mM. Both external and internal solutions were titrated with NaOH or KOH to obtain a pH of 7.35 or 7.3, respectively. The internal pipette solution contained potassium fluoride 70 mM, potassium chloride 60 mM, sodium chloride 70 mM, HEPES 5 mM, EGTA 5 mM, and Magnesium ATP 4 mM. The final concentration of vehicle used to dilute compounds was 0.33% DMSO in each well. Bicuculline (0.032 to 100 μM) was used as positive control inhibitor. GABA (15 μM) was used as agonist. […]
The compound addition sequence was the following: one addition of the EC80 concentration of GABA was added to establish baseline response. […] Peak inward currents in response to the GABA additions in the presence of a single concentration of compound were measured. […]

[3] = biological target: T1, dopamine D1 receptor; assay: cAMP HTRF activation assay (absence of dopamine); details: 10 μM compound, LMtk (Ltk−) cells expressing D1, read-out: activation (compared to dopamine maximal response)
Excerpt: as §1
The activation assay measures the stimulation of the production of cyclic adenosinemonophosphate (cAMP) in the Homogeneous Time Resolved Fluorescent (HTRF) assay, with the maximum increase in cAMP by increasing concentrations of the endogenous agonist, dopamine, defined as 100% activation.
as §2
as §3, with “cryptate. The effects of the compound alone (agonism) was determined by performing the assay in the absence of dopamine, whilst the effect of the compound as a positive allosteric modulator (PAM) was determined in the presence of an EC20 concentration of dopamine.” for “cryptate.”

T1 sequence (P21728 whole entry): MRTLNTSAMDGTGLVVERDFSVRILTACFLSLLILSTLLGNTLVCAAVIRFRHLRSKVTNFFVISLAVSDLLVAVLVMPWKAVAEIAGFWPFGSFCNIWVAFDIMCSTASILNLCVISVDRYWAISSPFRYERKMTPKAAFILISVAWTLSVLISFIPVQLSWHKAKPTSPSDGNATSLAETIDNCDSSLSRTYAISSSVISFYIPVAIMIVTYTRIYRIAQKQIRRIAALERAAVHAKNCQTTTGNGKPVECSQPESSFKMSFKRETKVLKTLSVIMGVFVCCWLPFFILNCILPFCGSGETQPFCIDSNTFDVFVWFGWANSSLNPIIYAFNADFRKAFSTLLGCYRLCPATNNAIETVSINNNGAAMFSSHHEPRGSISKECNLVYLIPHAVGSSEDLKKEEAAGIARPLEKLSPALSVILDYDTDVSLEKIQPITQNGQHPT
T2 sequence (P14867 28-456): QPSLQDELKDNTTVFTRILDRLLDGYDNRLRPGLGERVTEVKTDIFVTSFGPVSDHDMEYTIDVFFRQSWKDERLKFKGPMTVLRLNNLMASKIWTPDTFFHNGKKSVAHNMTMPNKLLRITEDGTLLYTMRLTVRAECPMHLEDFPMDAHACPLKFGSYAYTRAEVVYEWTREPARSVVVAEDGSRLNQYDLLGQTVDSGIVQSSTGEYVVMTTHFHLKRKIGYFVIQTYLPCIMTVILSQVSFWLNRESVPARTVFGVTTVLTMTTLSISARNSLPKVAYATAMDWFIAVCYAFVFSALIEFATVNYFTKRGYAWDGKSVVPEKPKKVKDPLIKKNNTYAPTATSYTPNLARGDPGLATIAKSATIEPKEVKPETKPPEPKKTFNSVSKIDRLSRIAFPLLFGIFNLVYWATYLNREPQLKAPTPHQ
T2 sequence (P47870 25-512 limits assumed): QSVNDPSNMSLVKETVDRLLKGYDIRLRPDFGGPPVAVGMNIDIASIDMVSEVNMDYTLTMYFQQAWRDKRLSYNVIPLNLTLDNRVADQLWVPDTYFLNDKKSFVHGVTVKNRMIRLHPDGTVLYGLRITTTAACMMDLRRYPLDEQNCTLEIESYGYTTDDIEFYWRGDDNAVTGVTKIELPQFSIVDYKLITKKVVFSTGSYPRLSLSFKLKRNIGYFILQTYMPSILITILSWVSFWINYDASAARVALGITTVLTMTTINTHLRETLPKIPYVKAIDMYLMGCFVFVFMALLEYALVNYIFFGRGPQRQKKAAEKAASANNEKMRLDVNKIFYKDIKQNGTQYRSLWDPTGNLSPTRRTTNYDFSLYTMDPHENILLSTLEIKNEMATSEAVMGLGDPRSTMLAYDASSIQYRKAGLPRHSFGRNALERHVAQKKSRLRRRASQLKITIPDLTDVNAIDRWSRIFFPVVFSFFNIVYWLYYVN
T2 sequence (P18507 40-475): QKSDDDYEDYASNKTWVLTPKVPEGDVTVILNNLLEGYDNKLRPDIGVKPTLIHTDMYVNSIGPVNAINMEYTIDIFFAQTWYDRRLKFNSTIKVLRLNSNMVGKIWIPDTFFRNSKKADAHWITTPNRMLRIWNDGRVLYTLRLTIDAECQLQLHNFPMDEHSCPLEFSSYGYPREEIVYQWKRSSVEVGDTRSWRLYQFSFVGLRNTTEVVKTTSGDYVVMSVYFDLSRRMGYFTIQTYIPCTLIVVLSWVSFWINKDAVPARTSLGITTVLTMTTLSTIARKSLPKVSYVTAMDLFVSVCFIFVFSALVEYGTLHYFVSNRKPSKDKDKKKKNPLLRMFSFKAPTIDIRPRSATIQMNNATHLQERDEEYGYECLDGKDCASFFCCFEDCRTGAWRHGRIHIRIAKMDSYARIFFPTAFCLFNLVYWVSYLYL

Erel (relative efficacy, maximal % potentiation vs dopamine maximal response) ([1]; in presence of [EC20] dopamine (1.1 nM), dopamine maximum = 100%): about 62% | EC50 ([1]; potentiation of cAMP in presence of [EC20] dopamine (1.1 nM), LMtk (Ltk−) cells expressing D1): ~6.31 nM and < 31.6 nM | inhibition at 10 µM [2]: < 0.1% | Emax at 10 µM [3]: < 20%
SMILES: C[C@H]1c2cccc(C(C)(C)O)c2C[C@H](CO)N1C(=O)Cc1c(Cl)ccc2[nH]nc(Cl)c12 [compound of formula (I), 2-(3,5-dichloro-1H-indazol-4-yl)-1-[(1S,3R)-3-(hydroxymethyl)-5-(1-hydroxy-1-methyl-ethyl)-1-methyl-3,4-dihydro-1H-isoquinolin-2-yl]ethanone]
